The text below walks through data of US10023532B2, “Alkyl phenyl sulfide derivative and pest control agent” (KUMIAI CHEMICAL INDUSTRY CO., LTD., priority 2012, dated 2018).

Assay [1] relates to Tetranychus urticae Koch (two spotted spider mite). Put plainly: Control effect test for Tetranychus urticae Koch (two spotted spider mite). In kind it is in vivo. The settings on record: active ingredient concentration 4 ppm, soybean seedlings with 35 female adults immersed, 25° C., after 13 days, no replication; for pest or weed control at 4 ppm: Tetranychus urticae, 312 h. How it is done: A wettable powder prepared based on Formulation Example 2 was diluted with water into an active ingredient concentration of 4 ppm. In the solution were immersed soybean seedlings which had been inoculated with 35 female adults of two spotted spider mite. The soybean seedlings were dried in the air and placed in a thermostat of 25° C. After 13 days, the number of living female adults was examined and the control value of the active ingredient was determined using the calculation formula of the following Mathematical Expression 1. This test was conducted with no replication. Control value=100−[(number of living female adults after 13 days, in treated seedlings)/(number of living female adults after 13 days, in non-treated seedlings)]×100 [Mathematical Expression 1]
Tests similar to the above were conducted using, as comparative compounds, compound Nos. 22 and 23 described in JP-A-1975-29744, compound Nos. 3, 4, 5, 6 described in JP-A-1976-19121 and compound Nos. 18, 19 and 36 described in JP-A-1988-41451. The structures of these comparative compounds are as follows.

For assay [2], the system named is Nilaparvata lugens Stál (brown rice planthopper). Put plainly: Insecticidal activity test for Nilaparvata lugens Stál (brown rice planthopper). In kind it is in vivo. The settings on record: active ingredient concentration 100 ppm, sprouting unhulled rice immersed, 10 3-instar larvae, 25° C., after 6 days, no replication; for mortality at 100 ppm: Nilaparvata lugens, 144 h. The method, then: A wettable powder prepared based on Formulation Example 2 was diluted with water into an active ingredient concentration of 100 ppm. In the solution was immersed sprouting unhulled rice. They were placed in a 60-ml plastic cup. Thereinto were released 10 3-instar larvae of brown rice planthopper. The cup was covered with a lid and placed in a thermostat of 25° C. After 6 days, the number of living insects was counted and the mortality of insect was determined from the calculation formula of the following Mathematical Expression 2. This test was conducted with no replication. Mortality (%)=100−[(number of living insects after 6 days)/(number of tested insects)]×100 [Mathematical Expression 2]
As in the case of Test Example 1, tests similar to the above were conducted using, as comparative compounds, compound Nos. 22 and 23 described in JP-A-1975-29744, compound Nos. 4, 5, 6 described in JP-A-1976-19121 and compound Nos. 18, 19 and 36 described in JP-A-1988-41451.

Structures are written as SMILES.

Usually mortality stands for the share of the test organisms that died. As to `CCC[S+]([O-])c1cc(OCC=CCl)ccc1C` (stereo not shown) [compound 6], the control value entry in assay [1] was “no activity”. Further, the mortality entry in assay [2] is “no activity”.
In the case of `CCCSc1cc(OCCCSCc2ccccc2)ccc1C` [compound 36], in assay [1], the control value result is “no activity”. The mortality result in assay [2] was “no activity”.
One may read the pest or weed control as how far the test organism was held down. In turn, `Cc1cc(F)c(OCCCCC(C)(C)C)cc1SCC(F)(F)F` [A-0085, 5,5-dimethylhexyl-[2-fluoro-4-methyl-5-(2,2,2-trifluoroethylthio)phenyl] ether] came in with a pest or weed control at 4 ppm in assay [1] of no less than 90%. For the same compound, the mortality at 100 ppm in assay [2] is no less than 90%.
Regarding `Cc1cc(F)c(OCCCCC(C)(C)C)cc1[S+]([O-])CC(F)(F)F` (stereo not shown) [A-0086, 5,5-dimethylhexyl-[2-fluoro-4-methyl-5-(2,2,2-trifluoroethylsulfinyl)phenyl] ether], the pest or weed control at 4 ppm in assay [1] is no less than 90%. This compound also showed a mortality at 100 ppm in assay [2] of no less than 90%.
In assay [1], `Cc1ccc(OCCCCCSC(F)(F)F)cc1SCC(F)(F)F` [A-0438, 5-trifluoromethylthiopentyl-[4-methyl-3-(2,2,2-trifluoroethylthio)phenyl] ether] had a pest or weed control at 4 ppm of no less than 90%. The same compound displayed a mortality at 100 ppm in assay [2] of no less than 90%.
In assay [2], `Cc1cc(F)c(O)cc1SCC(F)(F)F` [C-0001, 2-fluoro-4-methyl-5-(2,2,2-trifluoroethylthio)phenol] had a mortality at 100 ppm of no less than 90%.
For the compound `C#CCOc1ccc(C)c(SCCC)c1` [compound 3], the control value entry in assay [1] is reported as “no activity”.
`Fc1cc(Cl)c(SCC(F)(F)F)cc1OCCCCCSC(F)(F)F` [A-0433, 5-trifluoromethylthiopentyl-[4-chloro-2-fluoro-5-(2,2,2-trifluoroethylthio)phenyl] ether]: the mortality at 100 ppm in assay [2] is no less than 90%.
For `CCCCCCOc1ccc(Cl)c([S+]([O-])CCC)c1` (stereo not shown) [compound 23], the control value result in assay [1] was “no activity”. For the same compound, the mortality entry in assay [2] is on record as “no activity”.
As to `CCCCCCOc1ccc(Cl)c(SCCC)c1` [compound 22], in assay [1], the control value result is “no activity”. Also, the mortality result in assay [2] is given as “no activity”.
In the case of `CCCSc1cc(OCC=CCl)ccc1C` [compound 5], in assay [1], the control value result is listed as “no activity”. For the same compound, the mortality entry in assay [2] is “no activity”.
In the case of `CCC[S+]([O-])c1cc(OCc2ccc(Cl)cc2)ccc1C` (stereo not shown) [compound 19], the control value entry in assay [1] is “no activity”. Moreover, the mortality entry in assay [2] is on record as “no activity”.
As to `CCCSc1cc(OCc2ccc(Cl)cc2)ccc1C` [compound 18], the control value result in assay [1] is recorded as “no activity”. Moreover, the mortality entry in assay [2] is given as “no activity”.
`C#CCOc1ccc(C)c([S+]([O-])CCC)c1` (stereo not shown) [compound 4]: in assay [1], the control value entry is reported as “no activity”. For the same compound, the mortality entry in assay [2] was “no activity”.
For `[O-][S+](CC(F)(F)F)c1cc(OCCCCCSC(F)(F)F)c(F)cc1Cl` (racemic) [A-0434, 5-trifluoromethylthiopentyl-[4-chloro-2-fluoro-5-(2,2,2-trifluoroethylsulfinyl)phenyl] ether], in assay [1], the pest or weed control at 4 ppm was no less than 90%. In addition, the mortality at 100 ppm in assay [2] is no less than 90%.
On to `[O-][S+](CC(F)(F)F)c1cc(OCCCCCCSC(F)(F)F)c(Cl)cc1Cl` (stereo not shown) [A-0479, 6-trifluoromethylthiohexyl-[2,4-dichloro-5-(2,2,2-trifluoroethylsulfinyl)phenyl] ether], for which, in assay [1], the pest or weed control at 4 ppm was no less than 90%.
The same measure, in the same setting: then `[O-][S+](CC(F)(F)F)c1cc(OCCc2ccc(C(F)(F)F)cc2)c(Cl)cc1Cl` (stereo not shown) [A-0767, 2-(4-trifluoromethylphenyl)ethyl-[2,4-dichloro-5-(2,2,2-trifluoroethylsulfinyl)phenyl] ether], with no less than 90%; and `Cc1cc(C)c([S+]([O-])CC(F)(F)F)cc1OCCc1ccc(OC(F)(F)F)cc1` (stereo not shown) [A-0783, 2-(4′-trifluoromethoxyphenyl)ethyl-[2,4-dimethyl-5-(2,2,2-trifluoroethylsulfinyl)phenyl] ether], with no less than 90%; and `FC(F)(F)CSc1cc(OCCCCCCSC(F)(F)F)c(Cl)cc1Cl` [A-0478, 6-trifluoromethylthiohexyl-[2,4-dichloro-5-(2,2,2-trifluoroethylthio)phenyl] ether], with no less than 90%.
`Cc1ccc(OCCCCCSC(F)(F)F)cc1[S+]([O-])CC(F)(F)F` (stereo not shown) [A-0439, 5-trifluoromethylthiopentyl-[4-methyl-3-(2,2,2-trifluoroethylsulfinyl)phenyl] ether]: in assay [1], the pest or weed control at 4 ppm was no less than 90%. In assay [2], this compound returned a mortality at 100 ppm of no less than 90%.
Take `Cc1cc(C)c([S+]([O-])CC(F)(F)F)cc1OCCCCCCSC(F)(F)F` (stereo not shown) [A-0481, 6-trifluoromethylthiohexyl-[2,4-dimethyl-5-(2,2,2-trifluoroethylsulfinyl)phenyl]ether]: the pest or weed control at 4 ppm in assay [1] was no less than 90%.
